In patent US20220041616A1, “SPIRO COMPOUND AND MEDICAL USES THEREOF” (The National Institutes of Pharmaceutical R&D Co., Ltd., priority 2018, published 2022):

What follows are compounds tested against T1, ACC1 (Homo sapiens, UniProt Q13085) (assay: In vitro inhibition of ACC1 activity, ADP-Glo Kinase Analysis). Conditions: 1 nM ACC1, 10 μM acetyl-CoA, 20 μM ATP.
T1 construct: purchased BPS bioscience
Assay type: biochemical
Excerpt: ADP-Glo™ Kinase Analysis Kit (Promega) is used for the in vitro analysis of the inhibitory effect of the present compound on ACC1 or ACC2. ADP-Glo™ Kinase Analysis is a kinase detection analysis of luminescence method. ADP is produced in the process of catalyzing the substrate by ACC. ADP is converted into ATP which is then converted into light by Ultra-Glo™ luciferase. ADP is quantified by detecting the light signal, thus the enzyme activity can be measured by quantification of the ADP amount produced during the enzyme reaction. The analysis is carried out in two steps: in the first step, after the kinase reaction, a portion of ADP-Glo™ reagent equal in volume to the kinase reaction system is added to terminate the reaction and consume the remaining ATP; in the second step, a kinase detection reagent is added, which not only converts ADP into ATP, but also uses a coupled luciferase/luciferin reaction to detect newly synthesized ATP.
a. 10 mM compound stock solution (the present compound was dissolved in 100% DMSO to prepare the 10 mM stock solution) was diluted 50-fold to 200 μM with 100% DMSO, and then diluted in equal proportions (1:3) in a 96-well dilution plate (249944, Nunc). The gradient concentrations of the compound were 200 μM, 66.67 μM, 22.22 μM, 7.41 μM, 2.47 μM, 0.823 μM, 0.274 μM, 0.0914 μM, 0.0305 μM, 0.0102 μM, 0.00339 μM and 0.00113 μM.
b. 4.5 μL ACC1 working solution (BPS bioscience) (2.22 nM) was added to each well of a 384-well test plate (6007290, Perkin Elmer).
c. 0.5 μL of the serially diluted compound (prepared in step a) was added to each well of the 384-well test plate, which was centrifuged at 1000 rpm for 1 min and then incubated at room temperature for 15 min. The reaction system with compound GS-0976 at a final concentration of 0.1 μM was used as positive control; the reaction system with no compound but DMSO at a final concentration of 5% was used as negative control.
d. In the 384-well test plate (prepared in step c), 5 μL of the substrate working solution was added to each well to start the enzymatic reaction. The plate was centrifuged at 1000 rpm for 1 min and then incubated at room temperature for 30 min. The final concentration of each component in the ACC1 reaction system: 1 nM ACC1, 10 μM acetyl-CoA, 30 mM NaHCO3, and 20 μM ATP. The final concentration of each component in the ACC2 reaction system: 1.1 nM ACC2, 20 μM acetyl-CoA, 20 mM NaHCO3, and 15 μM ATP. Final concentrations of test compounds: 10 μM, 3.33 μM, 1.11 μM, 0.37 μM, 0.123 μM, 0.0411 μM, 0.0137 μM, 0.00457 μM, 0.00152 μM, 0.00051 μM, 0.00017 μM and 0.000056 μM. The final concentration of DMSO was 5% (v/v).
e. 10 μL of ADP-Glo reagent was added to each well of the 384-well test plate (prepared in step d), which was centrifuged at 1000 rpm for 1 min and then incubated at room temperature for 40 min.
f. 20 μL of kinase detection reagent was added to each well of the 384-well test plate (prepared in step e), which was centrifuged at 1000 rpm for 1 min and then incubated at room temperature for 40 min.
g. The chemiluminescence signal was detected with Perkin Elmer EnVision 2104.
ACC1 working solution and substrate working solution were both prepared with 1× kinase reaction buffer. The buffer was consisting of 50 mM HEPES buffer, 2 mM magnesium chloride, 0.01% BRIJ-35, 2 mM potassium citrate, 50 μg/mL BSA and 2 mM DTT.
The average value of the positive and negative control well and the standard deviation were calculated. The inhibition percentage was calculated according to the following formula: 100×[1−(compound−average value of positive control)/(average value of negative control-average value of positive control)].
IC50 of the compound was obtained using GraphPad Prism 6 software according to the following nonlinear fitting formula:
Y=Bottom+(Top−Bottom)/(1+10^((Log IC50−X)×Hillslope)), […]

| SMILES | IC50 [nM] |
| --- | --- |
| COc1ccccc1[C@H](CN1c2sc(-c3ncco3)c(C)c2C(=O)[C@]2(C[C@H](C(=O)N[C@@H](C)C(=O)O)C2)C1=O)OC1CCOCC1 [Compound 13] | < 10 |
| COc1ccccc1[C@H](CN1c2sc(-c3ncco3)c(C)c2C(=O)[C@]2(C[C@H](C(=O)N[C@H](C)C(=O)O)C2)C1=O)OC1CCOCC1 [Compound 14, ((1S,3S)-7′-((R)-2-(2-methoxyphenyl)-2-((tetrahydro-2H-pyran-4-yl)oxy)ethyl)-3′-methyl-2′-(oxazol-2-yl)-4′,6′-dioxo-6′,7′-dihydro-4′H-spiro[cyclobutane-1,5′-thieno[2,3-b]pyridine]-3-carbonyl)-D-alanine] | < 10 |
| COC(=O)[C@@H](C)NC(=O)[C@H]1C[C@@]2(C1)C(=O)c1c(sc(-c3ncco3)c1C)N(C[C@H](OC1CCOCC1)c1ccccc1OC)C2=O [Compound 14-1, Methyl ((1S,3S)-7′-((R)-2-(2-methoxyphenyl)-2-((tetrahydro-2H-pyran-4-yl)oxy)ethyl)-3′-methyl-2′-(oxazol-2-yl)-4′,6′-dioxo-6′,7′-dihydro-4′H-spiro[cyclobutane-1,5′-thieno[2,3-b]pyridine]-3-carbonyl)-D-alaninate] | < 10 |
| COc1ccccc1[C@H](CN1c2sc(-c3ncco3)c(C)c2C(=O)[C@]2(C[C@H](C(=O)N(C)CC(=O)O)C2)C1=O)OC1CCOCC1 [Compound 15, N-((1s,3S)-7′-((R)-2-(2-methoxyphenyl)-2-((tetrahydro-2H-pyran-4-yl)oxy)ethyl)-3′-methyl-2′-(oxazol-2-yl)-4′,6′-dioxo-6′,7′-dihydro-4′H-spiro[cyclobutane-1,5′-thieno[2,3-b]pyridine]-3-carbonyl)-N-methylglycine] | < 10 |
| COc1ccccc1[C@H](CN1c2sc(-c3ncco3)c(C)c2C(=O)[C@]2(C[C@H](C(N)=O)C2)C1=O)OC1CCOCC1 [Compound 17] | < 10 |
| COc1ccccc1[C@H](CN1C(=O)C2(CCN(C(=O)OC(C)(C)C)CC2)C(=O)c2c1sc(-c1ncco1)c2C)OC1CCOCC1 [Compound 20, tert-butyl (R)-7′-(2-(2-methoxyphenyl)-2-((tetrahydro-2H-pyran-4-yl)oxy)ethyl)-3′-methyl-2′-(oxazol-2-yl)-4′,6′-dione-6′,7′-dihydro-4′H-spiro[piperidine-4,5′-thieno[2,3-d]pyridine]-1-carboxylate] | 10 to 100 |
| COc1ccccc1[C@H](CN1C(=O)C2(CCNCC2)C(=O)c2c1sc(-c1ncco1)c2C)OC1CCOCC1 [Compound 21, (R)-7′-(2-(2-methoxyphenyl)-2-((tetrahydro-2H-pyran-4-yl)oxy)ethyl)-3′-methyl-2′-(oxazol-2-yl)-4′H-spiro[piperidine-4,5′-thieno[2,3-d]pyridine]-4′,6′(7′H)-dione] | < 10 |
| COC(=O)CN1CCC2(CC1)C(=O)c1c(sc(-c3ncco3)c1C)N(C[C@H](OC1CCOCC1)c1ccccc1OC)C2=O [Compound 22, methyl (R)-2-(7′-(2-(2-methoxyphenyl)-2-((tetrahydro-2H-pyran-4-yl)oxy)ethyl)-3′-methyl-2′-(oxazol-2-yl)-4′,6′-dioxo-6′,7′-dihydro-4′H-spiro[piperidine-4,5′-thieno[2,3-d]pyridine]-1-yl)carboxylate] | 10 to 100 |
| COc1ccccc1[C@H](CN1C(=O)C2(CCN(CC(=O)O)CC2)C(=O)c2c1sc(-c1ncco1)c2C)OC1CCOCC1 [Compound 23, (R)-2-(7′-(2-(2-methoxyphenyl)-2-((tetrahydro-2H-pyran-4-yl)oxy)ethyl)-3′-methyl-2′-(oxazol-2-yl)-4′,6′-dioxo-6′,7′-dihydro-4′H-spiro[piperidine-4,5′-thieno[2,3-d]pyridin]-1-yl)acetic Acid] | < 10 |
| COc1ccccc1[C@H](CN1C(=O)C2(CCN(C(C)(C)C(=O)O)CC2)C(=O)c2c1sc(-c1ncco1)c2C)OC1CCOCC1 [Compound 25, (R)-2-(7′-(2-(2-methoxyphenyl)-2-((tetrahydro-2H-pyran-4-yl)oxy)ethyl)-3′-methyl-2′-(oxazol-2-yl)-4′,6′-dioxo-6′,7′-dihydro-4′H-spiro[piperidine-4,5′-thieno[2,3-d]pyridin]-1-yl)-2-methylpropionic Acid] | 10 to 100 |
| COC(=O)C(C)(C)N1CCC2(CC1)C(=O)c1c(sc(-c3ncco3)c1C)N(C[C@H](OC1CCOCC1)c1ccccc1OC)C2=O [Compound 25-1, methyl (R)-2-(7′-(2-(2-methoxyphenyl)-2-((tetrahydro-2H-pyran-4-yl)oxy)ethyl)-3′-methyl-2′-(oxazol-2-yl)-4′,6′-dioxo-6′,7′-dihydro-4′H-spiro[piperidine-4,5′-thieno[2,3-d]pyridin]-1-yl)-2-methylpropanoate] | 10 to 100 |
| COC(=O)C(=O)N1CCC2(CC1)C(=O)c1c(sc(-c3ncco3)c1C)N(C[C@H](OC1CCOCC1)c1ccccc1OC)C2=O [Compound 26, methyl (R)-2-(7′-(2-(2-methoxyphenyl)-2-((tetrahydro-2H-pyran-4-yl)oxy)ethyl)-3′-methyl-2′-(oxazol-2-yl)-4′,6′-dioxo-6′,7′-dihydro-4′H-spiro[piperidine-4,5′-thieno[2,3-d]pyridin]-1-yl)-2-oxoacetate] | < 10 |

Results, then the compound that gave them:

| IC50 [nM] | SMILES |
| --- | --- |
| < 10 | COc1ccccc1[C@H](CN1c2sc(-c3ncco3)c(C)c2C(=O)[C@]2(C[C@H](C(=O)NC(C)(C)C(=O)O)C2)C1=O)OC1CCOCC1 [Compound 11, 2-((1s,3S)-7′-((R)-2-(2-methoxyphenyl)-2-((tetrahydro-2H-pyran-4-yl)oxy)ethyl)-3′-methyl-2′-(oxazol-2-yl)-4′,6′-dioxo-6′,7′-dihydro-4′H-spiro[cyclobutane-1,5′-thieno[2,3-b]pyridine]-3-carboxyamido)-2-methylpropionic Acid] |
| < 10 | COc1ccccc1[C@H](CN1c2sc(-c3ncco3)c(C)c2C(=O)[C@]2(C[C@H](C(=O)N(C)C)C2)C1=O)OC1CCOCC1 [Compound 12] |
| < 10 | COC(=O)CN(C)C(=O)[C@H]1C[C@@]2(C1)C(=O)c1c(sc(-c3ncco3)c1C)N(C[C@H](OC1CCOCC1)c1ccccc1OC)C2=O [Compound 15-1, Methyl N-((1s,3S)-7′-((R)-2-(2-methoxyphenyl)-2-((tetrahydro-2H-pyran-4-yl)oxy)ethyl)-3′-methyl-2′-(oxazol-2-yl)-4′,6′-dioxo-6′,7′-dihydro-4′H-spiro[cyclobutane-1,5′-thieno[2,3-b]pyridine]-3-carbonyl)-N-methylglycinate] |
| < 10 | COc1ccccc1[C@H](CN1c2sc(-c3ncco3)c(C)c2C(=O)[C@]2(C[C@H](C(=O)OCC(=O)O)C2)C1=O)OC1CCOCC1 [Compound 16, 2-(((1s,3S)-7′-((R)-2-(2-methoxyphenyl)-2-((tetrahydro-2H-pyran-4-yl)oxy)ethyl)-3′-methyl-2′-(oxazol-2-yl)-4′,6′-dioxo-6′,7′-dihydro-4′H-spiro[cyclobutane-1,5′-thieno[2,3-b]pyridine]-3-carbonyl)oxy)acetic Acid] |
| < 10 | COc1ccccc1[C@H](CN1c2sc(-c3ncco3)c(C)c2C(=O)[C@]2(C[C@H](C(=O)NCCO)C2)C1=O)OC1CCOCC1 [Compound 18, (1s,3S)-N-(2-hydroxyethyl)-7′-((R)-2-(2-methoxyphenyl)-2-((tetrahydro-2H-pyran-4-yl)oxy)ethyl)-3′-methyl-2′-(oxazol-2-yl)-4′,6′-dioxo-6′,7′-dihydro-4′H-spiro[cyclobutane-1,5′-thieno[2,3-b]pyridine]-3-carboxamide] |
